According to article PMC12000251, “Evaluation of the Anti-Inflammatory Effects of Novel Fatty Acid-Binding Protein 4 Inhibitors in Microglia” (Journal of Neuroimmune Pharmacology, 2025):
Values joined by “and” are separate entries in the source; they are usually repeats but may differ in a detail not shown here. Equal values may be shown once.

Key:
BV-2 cells = test: MTT assay of BV-2 cell viability; assay type: cell-based, mouse; details: 24 h
Protocol: BV-2 cells were cultured in DMEM/F-12 media supplemented with 10% (v/v) FBS and 1% (v/v) penicillin/streptomycin, and kept at 37 °C in a humidified incubator ([…], 5% CO2) for all studies. Cells with 80% confluency were used for experiments. At 24 h post-seeding, BV-2 cells were treated with either of the MFP compounds (at concentrations detailed below) or vehicle (0.1% (v/v) DMSO) and 1 µg/mL LPS for a period of 24 h. In some experiments (detailed in Results), BV-2 cells were exposed to MFP compounds for 2 h before a 24 h exposure to LPS and MFP compounds, and in some studies, in the presence of FABP4 siRNA using a 24 h treatment that we have previously employed (Low et al. [2021]). In brief, BV-2 cells were washed once 4 h post-seeding with blank DMEM/F-12 media. siRNA complexes (containing FABP4 siRNA, target sequence 5’-[…]-3’ or AllStar Negative Control siRNA, target sequence proprietary) were added dropwise onto the cells. siRNA complexes were prepared by mixing siRNA and HiPerfect transfection reagent together in FBS-free DMEM/F12 media and incubating for 15 min to allow the siRNA complexes to form. The cells were incubated with the siRNA complex for 5 min, after which, DMEM/F12 media containing FBS was added into each well to dilute the siRNA complexes to 5 nM.
To determine the most appropriate and tolerable concentration of MFP compounds in BV-2 cells, an MTT assay was performed. Following treatment with increasing concentrations of MFP compounds for 24 h, BV-2 cells were rinsed once with PBS prior to being incubated with 0.45 mg/mL MTT reagent for 4 h in a 37 °C, 5% CO2 incubator. After that, the MTT reagent was removed and 150 µL of DMSO was added into all wells for 30 min. The plate was then immediately read on a Perkin-Elmer Enspire fluorescence plate reader (Boston, MA) at 540 nm. Background subtraction was performed before the percentage cell viability was calculated and expressed as a ratio of mean absorbance of MFP-treated cells over mean absorbance of vehicle-treated cells.

LPS-activated BV-2 cells [1] = test: TNF-α ELISA of supernatant of LPS-activated BV-2 cells; assay type: cell-based, mouse
Protocol: (§1) BV-2 cells were cultured in DMEM/F-12 media supplemented with 10% (v/v) FBS and 1% (v/v) penicillin/streptomycin, and kept at 37 °C in a humidified incubator ([…], 5% CO2) for all studies. Cells with 80% confluency were used for experiments. At 24 h post-seeding, BV-2 cells were treated with either of the MFP compounds (at concentrations detailed below) or vehicle (0.1% (v/v) DMSO) and 1 µg/mL LPS for a period of 24 h. In some experiments (detailed in Results), BV-2 cells were exposed to MFP compounds for 2 h before a 24 h exposure to LPS and MFP compounds, and in some studies, in the presence of FABP4 siRNA using a 24 h treatment that we have previously employed (Low et al. [2021]). […]
ELISA was performed as per manufacturer’s protocol to measure the concentration of TNF-α in the supernatant in which BV-2 cells were treated. […] 100 µL of Stop solution was added into each well before the plate was immediately read on a Perkin-Elmer Enspire fluorescence plate reader at 450 nm […] and 570 nm (absorbance). Absorbance values at 570 nm were subtracted from 450 nm to account for background. TNF-α concentration was normalised to total protein count (mg), as quantified by a BCA assay, and reported as pg/mg protein.

[2] = 1D 1H NMR aqueous solubility in phosphate buffer; assay type: physicochemical; details: kinetic from dmso stock, phosphate buffer pH 7.4 in D2O, 0.1% d6-DMSO, 25 °C, range 3.125–100 µM, read-out: Soluble in phosphate buffer up to (concentration)
Protocol: 1D ^1H NMR was employed to determine the solubility limits of the four MFP compounds and BMS309403 in phosphate buffer. This method has been commonly used to determine compound solubility in the drug discovery setting (Devine et al. [2014]; Lee et al. [2015b]; Lin et al. [2009]). A 100 mM of stock solution of each compound was first prepared in d6-DMSO. These stock solutions were then added into phosphate buffer (50 mM sodium phosphate, 25 mM NaCl, 100 µM of DSS, pH 7.4 in D2O) to achieve a final d6-DMSO concentration of 0.1% (v/v) which is equivalent to the DMSO concentration present in BV-2 cell culture experiments. All samples were inspected to note whether visible precipitates were formed. ^1H NMR spectra for all of the samples were acquired using Bruker Avance III 600 MHz spectrometer at 25 °C. Experimental data were acquired using a relaxation delay of 5 s with 128 scans, and water suppression using an excitation sculpting pulse scheme. Mestrelab Research 13.0 software was used to integrate the proton resonances of the compounds. A well-resolved peak (i.e. no overlaps with any other peaks) in the spectrum of each compound was chosen for integration, relative to the DSS peak (at 0 ppm). […] In addition, the chemical shifts of the resonances in the 1D ^1H NMR spectra were monitored.

LPS-activated BV-2 cells [3] = test: Extracellular nitrite (Griess assay) from LPS-activated BV-2 cells; assay type: cell-based, mouse; details: 50 µM, 1 µg/mL LPS 24 h
Protocol: as §1
For measurement of extracellular nitrite concentrations, the Griess assay was performed as per the manufacturer’s protocol (Molecular Probes, Eugene, OR) with minor changes. […] The absorbance of the media samples was measured on a Perkin-Elmer Enspire plate reader at 548 nm, with nitrite concentrations in media samples obtained by back calculating sample absorbance values back to a standard curve prepared through serial dilution of NaNO2 prepared in media.

Q: Which “fold reduction in cell viability” value (BV-2 cells; 75 µM and 100 µM of MFP-0012328, 100 µM of the other MFP compounds, range over the compounds) does the source give for `O=C(O)c1cccc(NS(=O)(=O)c2ccc(Cl)c(Cl)c2)c1` [MFP-0012328] here?
A: 0.17–0.27 fold

Q: And the “BV-2 cell viability relative to vehicle control” value (BV-2 cells; 2–50 µM, MTT)?
A: no significant differences

Q: And the “reduction in extracellular concentration of TNF-α relative to LPS-only” value (LPS-activated BV-2 cells [1]; 10 µM, 1 µg/mL LPS 24 h)?
A: 25% and 24.8%

Q: What about the “reduction of TNF-α release vs LPS-alone” value (LPS-activated BV-2 cells [1]; BV-2 cells pre-treated with LPS for 4 h, then 10 µM compound) of the same compound?
A: 15.7%

Q: And the solubility [2]?
A: ≥ 100 µM

Q: What about the “attenuation of LPS-mediated release of nitrite” value (LPS-activated BV-2 cells [3]) of the same compound?
A: 51.3%
